Test results reported in patent US7465783B2, “Plant peptide with antimicrobial activity” (Centre National de la Recherche Scientifique, priority 2002, dated 2008).
Ends that are not written are not given here.

Key:
Type in all cases: cell-based
[1] = system: Escherichia coli Strain DH5α; test: Antimicrobial (bacteriostatic) activity, peptide drops on TOPagar lawn
Description: (§1) Toxicity experiments on the peptide of 25 amino acids (SUP 25) purified in the preceding example on different bacteria were carried out. The different bacteria are cultured in 5 ml of LB medium or of medium appropriate to the strain, and then sedimented by centrifugation at 3000 g, and finally taken up in a volume of LB identical to the volume of bacteria. 50 μl of bacteria are inoculated into 9 ml of liquid TOPagar (LB+7 g/l of bactoagar) at 48° C. and rapidly poured into a square LB agar dish of 10 cm on each side. The drops of 10 μl of different concentrations of peptides are deposited on the solidified ToPagar. The dish is cultured for 16 hours. Cecropin A at 20 μM, an insect peptide recognized as having antibacterial activity, serves as a positive control.

[2] = system: Pseudomonas syringae pv tomato strain DC3000; test: as above
Description: as §1

[3] = system: Xanthomonas campestris pv campestris strain 8004; test: as above
Description: as §1

[4] = system: protoplasts of Arabidopsis thaliana
Description: This experiment has the aim of determining whether the effect of the peptide on the viability of the protoplasts of Arabidopsis thaliana corresponds to the cell necrosis or else to the implementation of the process of programmed cell death or apoptosis.
Apoptosis is distinguished from necrosis by a rigorous staging of death, punctuated by a set of genetically controlled events (Vaux and Korsmeyer (Cell, 1999, 96: 245-254); Pennell and Lamb (Plant Cell, 1997, 9: 1157-1168); Greenberg (P.N.A.S., 1996, 93: 12094-12097)). […] The TUNEL reaction allows the free 3′OH ends present in great quantity in the nuclei whose DNA is fragmented in the course of the process of apoptosis to be labeled.
The external application of the peptide of 25 amino acids to protoplasts of Arabidopsis thaliana at 5 μM for 2 hours allows an increase in the population of positive TUNEL protoplasts to be observed (FIG. 5B). 4 times more nuclei show DNA fragmentation characteristics with respect to the control.

Substance	Cecropin A 20 μM (positive control, antibacterial activity) [1]	Cecropin A 20 μM (positive control, antibacterial activity) [2]	Cecropin A 20 μM (positive control, antibacterial activity) [3]	cytotoxic activity (fragmentation of nuclear DNA, TUNEL), in words [4]
Cecropin A [reference compound]	Positive	Positive	Positive	–
MWWLVGLTPVELIHLCAFRERLSHL [Pep1S]	–	–	–	no longer has cytotoxic activity
MWWLVGLTPVELIHLSAFRERLSHL [Pep2S]	–	–	–	has a cytotoxic activity
